Measurements from patent US12358935B2, “Targeting redox-active pyridinium cations to mitochondria to inhibit proliferation of drug-resistant cancer cells” (The Medical College of Wisconsin, Inc., priority 2018, dated 2025).
Entries after “also recorded” stand apart in the source; their conditions may differ. Read-outs that look alike come from different tables or passages of the source.

Columns and labels:
[1] = tested on: LS513 cells; assay: Cell proliferation, IncuCyte cell confluence; assay type: cell-based, human; conditions: for IC50: estimated from concentration dependence
Description: FIG. 8. Effect of Mito-Py compounds (10 μM) on the proliferation of LS513 cells. (A) Effect of the substituent on the pyridinium ring. (B) Effect of the alkyl linker length in Mito-NP.
FIG. 9. Effect of concentration of Mito-NP-C8 and Mito-NP-C10 on the LS513 cell confluence. Dashed lines correspond to 50% cell confluence.
Antiproliferative effects of mitochondria-targeted pyridinium cations. To test if the mitochondrial redox stress induced by Mito-Py compounds would translate into inhibition of cancer cell proliferation, we compared the effects of Mito-Py of different redox potential and different alkyl linker length on proliferation of LS513 cells. We used the IncuCyte™ Live-Cell Imaging Analyzer that provides real-time cell confluence data (FIG. 8).

[2] = tested on: LS513 colon cancer cells; assay: Superoxide production, hydroethidine (HE) assay with HPLC of 2-OH-E+; assay type: cell-based, human; conditions: 50 μM, 1 h pre-incubation then 1 h HE probe
Description: FIGS. 5A-5B. Stimulation of intracellular superoxide of Mito-Py. LS513 colon cancer cells were pre-incubated for 1 h with 50 μM Mito-Py followed by 1-h incubation with the HE probe. 2-OH-E^+ is a specific product of the reaction of the probe with superoxide. (A) Effect of the substituent on the pyridinium ring. (B) Effect of the alkyl linker length in Mito-NP.
Induction of superoxide production by mitochondria-targeted pyridinium cations.

[3] = tested on: LS513 cells; assay: Cell death, Sytox Green; assay type: cell-based, human; conditions: prolonged (>24 h) incubation
[4] = tested on: mitochondrial Prx3; assay: Redox blotting of peroxiredoxin 3; assay type: cell-based, human; conditions: 10 μM, 1 h, LS513 cells
Description: FIG. 6. Effect of Mito-NP-C10 (10 μM, 1 h) on the redox status of cytosolic (Prx1) and mitochondrial (Prx3) peroxiredoxins. **p<0.01
Intracellular localization of redox stress. To understand the fate of superoxide induced by Mito-NP-C10 and determine the localization of the redox cycling process, we performed redox blotting of peroxiredoxin isoforms 1 and 3 (Prx1 and Prx3).

[5] = tested on: LS513 colon cancer cells; assay: Oxygen consumption rate / mitochondrial respiration; assay type: cell-based, human
Description: FIG. 7. Effect of Mito-NP-C10 (0-100 μM) on the rates of oxygen consumption (OCR) by LS513 colon cancer cells, and on the cell response to mitochondrial stressors: oligomycin (ATP synthase inhibitor), dinitrophenol (DNP, mitochondrial uncoupler) and antimycin A (mitochondrial complex III inhibitor).
Induction of bioenergetic stress. To test the effect of Mito-NP-C10 on the bioenergetic function of LS513 cells, we monitored the mitochondrial respiration in response to acute addition of the compound at different doses (FIG. 7).

[6] = tested on: MiaPaCa2 cells; assay: Cellular oxidants, HE probe with HPLC profiling; assay type: cell-based, human; conditions: 10 μM
Description: FIG. 14. Stimulation of cellular oxidants by Mito-NP in pancreatic cancer cells. Profiles of HE oxidation products in MiaPaCa2 cells treated with Mito-NP (10 μM, 4 h).
(§1) FIG. 18. (A) Intracellular level of Mito-NP and Mito-NPH. (B) Dynamics of inhibition of mitochondrial respiration by Mito-NP and Mito-NPH. (C) Intracellular generation. 10 μM Mito-NP or Mito-NPH was used.
2.1. Generation of O2.^− and other oxidants. […] We have confirmed the mitochondrial localization of O2.^− production using Mito-SOX (Mito-HE-C6) probe with HPLC-based detection of, 2-OH-Mito-E^+, the O2.^−-specific oxidation product of MitoSOX (not shown).
(§2) We treated pancreatic cancer cells with Mito-NP or Mito-NPH and the intracellular levels of both oxidized, redox-cycling capable Mito-NP, and its cell membrane-permeable reduced precursor, Mito-NPH, were measured using LC-MS/MS. […] The dynamics of inhibition of mitochondrial respiration by Mito-NPH and Mito-NP was used to follow the compounds' uptake rates. […] The increased intracellular level of Mito-NP upon treatment with Mito-NPH also translated into 2-fold stronger stimulation of intracellular O2.^− production, as measured by monitoring O2.^−-specific product of hydroethidine oxidation, 2-OH-E^+ (FIG. 18C). […] Next, we tested the effects of Mito-NPH on MiaPaCa2 cell proliferation and survival. […] 5. Syngraft mouse model. We have established a preliminary syngraft model using mouse FC1242 PDAC cell line. After the tumor has been established and detectable by palpation (seven days after injection of tumor cells), Mito-NPH (0.2 mg per injection) was administered three times per week. Tumor size was measured using calipers and by weighing the tumor tissues at the completion of the study. […] The tumor tissues were analyzed for the level of Mito-NP and Mito-NPH 24 h after the last injection of Mito-NPH.

[7] = tested on: FC1242 PDAC tumor; assay: Syngraft mouse model, tumor growth; assay type: in vivo; conditions: 0.2 mg per injection, three times per week, 9 days of treatment, FC1242 syngraft in mice
Description: (§3) FIG. 20. In vivo effects of Mito-NPH on the FC1242 PDAC tumor growth in mice. (A) Tumor growth curves; (B) tumor wet weight after 9 days of treatment; and (C) LC-MS/MS traces of Mito-NP, Mito-NPH, and their metabolites: hydroxylamine (Mito-HAP) and amine (Mito-AP) derivatives extracted from tumor. n=5 per group, *p<0.05
as §2, with “After the tumor has been established and detectable by palpation (seven days after injection of tumor cells), Mito-NPH (0.2 mg per injection) was administered three times per week.” left out

[8] = tested on: MiaPaCa2 cells; assay: Inhibition of pancreatic cancer cell growth; assay type: cell-based, human
Description: (§4) FIG. 12. (A) Antiproliferative potency of Mito-NP against different pancreatic cancer cells. (B) Comparison of the antiproliferative effects of Mito-NP, with its untargeted analogs (10 μM each).
FIG. 19. Antiproliferative (A) and cytotoxic (B) potency of Mito-NP vs. Mito-NPH. MiaPaCa2 cells were incubated with the compounds for 5 days and cells counted (A) or for 24 h, followed by labeling with Sytox Green dead cell fluorescent stain (B).
(§5) 1. Antiproliferative and cytotoxic effects in pancreatic cancer cells. […] To determine the cytotoxic potency of Mito-NP, we used Sytox Green fluorescent marker, which accumulates in dead cells and increases its fluorescence yield upon binding DNA.
We treated pancreatic cancer cells with Mito-NP or Mito-NPH and the intracellular levels of both oxidized, redox-cycling capable Mito-NP, and its cell membrane-permeable reduced precursor, Mito-NPH, were measured using LC-MS/MS. […] The increased intracellular level of Mito-NP upon treatment with Mito-NPH also translated into 2-fold stronger stimulation of intracellular O2.^− production, as measured by monitoring O2.^−-specific product of hydroethidine oxidation, 2-OH-E^+ (FIG. 18C). […] Tumor size was measured using calipers and by weighing the tumor tissues at the completion of the study. […] The tumor tissues were analyzed for the level of Mito-NP and Mito-NPH 24 h after the last injection of Mito-NPH.

[9] = Tumor tissue compound levels, LC-MS/MS; assay type: in vivo, mouse; conditions: 24 h after the last injection of Mito-NPH
Description: as §3
as §2, with “After the tumor has been established and detectable by palpation (seven days after injection of tumor cells), Mito-NPH (0.2 mg per injection) was administered three times per week.” left out

[10] = tested on: MiaPaCa2 cells; assay type: cell-based
Description: (§6) FIG. 13. […] Cells were stained with Sytox Green dye after 48-h treatment with the compounds to label dead cells.
FIG. 19. […] MiaPaCa2 cells were incubated with the compounds for 5 days and cells counted (A) or for 24 h, followed by labeling with Sytox Green dead cell fluorescent stain (B).
as §5
We treated pancreatic cancer cells with Mito-NP or Mito-NPH and the intracellular levels of both oxidized, redox-cycling capable Mito-NP, and its cell membrane-permeable reduced precursor, Mito-NPH, were measured using LC-MS/MS. […] The dynamics of inhibition of mitochondrial respiration by Mito-NPH and Mito-NP was used to follow the compounds' uptake rates. […] Next, we tested the effects of Mito-NPH on MiaPaCa2 cell proliferation and survival. […] 5. Syngraft mouse model. We have established a preliminary syngraft model using mouse FC1242 PDAC cell line. […] Tumor size was measured using calipers and by weighing the tumor tissues at the completion of the study. […] The tumor tissues were analyzed for the level of Mito-NP and Mito-NPH 24 h after the last injection of Mito-NPH.

[11] = tested on: MiaPaCa2 cells; assay: Bioenergetic function, Seahorse XF96 flux analyzer; assay type: cell-based, human
Description: FIG. 16. Inhibition of mitochondrial respiration by Mito-NP in MiaPaCa2 cells. (A) Mito-NP injected during the measurements. (B) Cells pretreated with Mito-NP for 24 h. (C) Effect of Mito-NP concentration on ATP-linked respiration rate after 1 h and 24 h incubation. (D) Effect of Mito-NP concentration on glycolytic and mitochondrial ATP production rates after 24-h incubation.
as §1
Immediately (1 h) after injection, a high concentration of Mito-NP (100 μM) was needed to block ATP-linked respiration (FIG. 16A,C). […] One of the hallmarks of cancer cells is their flexibility in using different energetic substrates to sustain growth in the presence of metabolism-targeted drugs.
as §2

[12] = tested on: FC1242 cells; assay: Inhibition of pancreatic cancer cell growth; assay type: cell-based, mouse
Description: as §4, §5

[13] = tested on: HPNE non-tumorigenic pancreatic duct cell line; assay: Cytotoxicity, Sytox Green dead cell stain; assay type: cell-based, human; conditions: HPNE non-cancer cells, 48-h treatment
Description: as §6, §5

[14] = tested on: cytosolic Prx1; assay: Redox status of peroxiredoxin 1; assay type: cell-based, human; conditions: MiaPaCa2 cells
Description: (§7) FIG. 15. Effect of Mito-NP on the redox status of cytosolic (Prx1) and mitochondrial (Prx3) peroxiredoxins in MiaPaCa2 cells. *p<0.05, ***p<0.001.
(§8) 2.2. Prx oxidation. Increased production of O2.^− results in elevated H2O2 flux. We tested the effect of Mito-NP on the redox status of cytosolic (Prx1) and mitochondrial (Prx3) peroxiredoxins (FIG. 15A).

[15] = tested on: mitochondrial Prx3; assay: Redox status of peroxiredoxin 3; assay type: cell-based, human; conditions: MiaPaCa2 cells
Description: as §7, §8

[16] = tested on: Panc1 cells; assay: Inhibition of pancreatic cancer cell growth; assay type: cell-based, human
Description: as §4, §5

Question: What does the source list for `O=[N+]([O-])c1ccc[n+](CCCCCCCC[P+](c2ccccc2)(c2ccccc2)c2ccccc2)c1` [Mito-NP-C8]?
Answer: IC50 [1]: 13000 nM; superoxide production (2-OH-E+) [2]: stimulated superoxide production; cell death (Sytox Green) [3]: results in cell death

Question: Which “oxidation of mitochondrial Prx3” value [4] does the source give for `O=[N+]([O-])c1ccc[n+](CCCCCCCCCC[P+](c2ccccc2)(c2ccccc2)c2ccccc2)c1` [Mito-NP-C10] here?
Answer: The value was “induces significant oxidation of mitochondrial Prx3”.

Question: What about the IC50 [1] of the same molecule?
Answer: The IC50 was 6000 nM.

Question: What about the “response to mitochondrial stressors (oligomycin, DNP, antimycin A)” value ([5]; 0-100 μM) of the same molecule?
Answer: The value was “a loss in response to oligomycin”.

Question: And the “mitochondrial respiration rates (OCR)” value ([5]; 0-100 μM, acute addition)?
Answer: Its value is “time- and concentration-dependent inhibition in mitochondrial respiration rates”.

Question: And the “antimycin A-independent oxygen consumption” value ([5]; 30 and 100 μM)?
Answer: Its value is “increased the rates of antimycin A-independent oxygen consumption”.

Question: And the “superoxide production (2-OH-E+)” value [2]?
Answer: The value was “most potent inducer of superoxide production”.

Question: And the “cell death (Sytox Green)” value [3]?
Answer: The value was “results in cell death”.

Question: For `O=[N+]([O-])C1=CN(CCCCCCCCCC[P+](c2ccccc2)(c2ccccc2)c2ccccc2)C=CC1` [Mito-NPH], which “stimulation of intracellular O2.- production (2-OH-E+) vs Mito-NP” value [6] is on record?
Answer: The value was 2 fold.

Question: What about the “tumor growth (size, wet weight)” value [7] of the same molecule?
Answer: Its value is “inhibition of the tumor growth”.

Question: And the IC50 ([8]; 5 days incubation, read-out: IC50 (antiproliferative, cell count))?
Answer: The IC50 was 1200 ± 100 nM.

Question: What about the “compound level in tumor tissues” value [9] of the same molecule?
Answer: The value was “detected both Mito-NP and Mito-NPH”.

Question: What about the “cytotoxic potency (Sytox Green) vs Mito-NP” value ([10]; 24 h) of the same molecule?
Answer: Its value is “significantly stronger cytotoxic agent”.

Question: And the “dynamics of inhibition of mitochondrial respiration vs Mito-NP” value ([11]; 10 μM)?
Answer: The value was “More efficient inhibition of mitochondrial respiration”.

Question: What does the source list for `O=[N+]([O-])c1ccc[n+](CCCCCCCCCC[P+](c2ccccc2)(c2ccccc2)c2ccccc2)c1` [Mito-NP]?
Answer: O2.- production (2-OH-E+) ([6]; 4 h): significant increase; other HE oxidation products ([6]; 4 h): An increased level of other oxidation products; cell proliferation (confluence) ([1]; 10 μM): blocked the proliferation of colon cancer cells; IC50 [12]: 3100 ± 100 nM; cell death (Sytox Green) [13]: No induction of cell death; IC50 ([8]; read-out: IC50 (cell growth)): 2700 ± 200 nM; oxidation of cytosolic Prx1 [14]: only modest effect on cytosolic Prx1; cell death (Sytox Green) ([10]; 48-h treatment): dose-dependently induced death of MiaPaCa2 cells; also recorded: significantly stronger inducer of MiaPaCa2 cell death than Mito-Met; mitochondrial respiration [11]: time- and concentration-dependent inhibition of mitochondrial respiration; ATP-linked respiration ([11]; 10 μM, 24-h incubation): complete inhibition of ATP-linked respiration; rate of mitochondrial ATP production ([11]; 24-h incubation): decrease in the rate of mitochondrial ATP production; concentration needed to block ATP-linked respiration ([11]; 1 h after injection): 100 µM; glycolytic ATP production ([11]; concentrations higher than 10 μM, 24-h incubation): decreased at higher concentrations; glycolytic ATP production ([11]; concentrations up to 10 μM, 24-h incubation): remained unchanged; oxidation of mitochondrial Prx3 [15]: strong oxidation of mitochondrial Prx3; IC50 [16]: 2800 ± 300 nM
